Source: patent US9475815B2, “Substituted benzothienyl-pyrrolotriazines and uses thereof” (Bayer Intellectual Property GmbH, priority 2012, dated 2016)
pIC50: −log10 of the molar value. Where a name gives a salt, the structure may show the parent alone.

Columns and labels:
human FGFR-1 = human FGFR-1 (Homo sapiens, UniProt P11362); experiment: FGFR-1 high ATP kinase assay (TR-FRET)
human FGFR-3 = human FGFR-3 (Homo sapiens (Human), UniProt P22607); experiment: FGFR-3 kinase assay (TR-FRET); assay type: biochemical; conditions: 10 μM ATP, 15 min pre-incubation with enzyme
human mTOR = human mTOR (Homo sapiens (Human), UniProt P42345); experiment: mTOR kinase assay (TR-FRET, for comparative purposes); assay type: biochemical; conditions: read-out: mTOR % inhibition @ 1 μM, 1 μM test compound, 40 μM ATP, mean values
Description: mTOR inhibitory activity of the compounds of the present invention was quantified employing the TR-FRET based mTOR assay as described in the following paragraphs:
Test compounds were dissolved in DMSO to generate 10 mM stock solutions. These solutions were first 10-fold diluted by 100% DMSO to get 1 mM solutions in 100% DMSO, then 100-fold diluted by 50% DMSO to get 10 μM solutions in 50% DMSO.
(final concentration in the 10 μl assay volume=1 nM) in FRET buffer.
For this, the fluorescence emissions at 495 nm and 520 nm after excitation at 340 nm was measured in an Envision 2104 multilabel reader (Perkin-Elmer).

Chain of human mTOR (P42345 1360-2549): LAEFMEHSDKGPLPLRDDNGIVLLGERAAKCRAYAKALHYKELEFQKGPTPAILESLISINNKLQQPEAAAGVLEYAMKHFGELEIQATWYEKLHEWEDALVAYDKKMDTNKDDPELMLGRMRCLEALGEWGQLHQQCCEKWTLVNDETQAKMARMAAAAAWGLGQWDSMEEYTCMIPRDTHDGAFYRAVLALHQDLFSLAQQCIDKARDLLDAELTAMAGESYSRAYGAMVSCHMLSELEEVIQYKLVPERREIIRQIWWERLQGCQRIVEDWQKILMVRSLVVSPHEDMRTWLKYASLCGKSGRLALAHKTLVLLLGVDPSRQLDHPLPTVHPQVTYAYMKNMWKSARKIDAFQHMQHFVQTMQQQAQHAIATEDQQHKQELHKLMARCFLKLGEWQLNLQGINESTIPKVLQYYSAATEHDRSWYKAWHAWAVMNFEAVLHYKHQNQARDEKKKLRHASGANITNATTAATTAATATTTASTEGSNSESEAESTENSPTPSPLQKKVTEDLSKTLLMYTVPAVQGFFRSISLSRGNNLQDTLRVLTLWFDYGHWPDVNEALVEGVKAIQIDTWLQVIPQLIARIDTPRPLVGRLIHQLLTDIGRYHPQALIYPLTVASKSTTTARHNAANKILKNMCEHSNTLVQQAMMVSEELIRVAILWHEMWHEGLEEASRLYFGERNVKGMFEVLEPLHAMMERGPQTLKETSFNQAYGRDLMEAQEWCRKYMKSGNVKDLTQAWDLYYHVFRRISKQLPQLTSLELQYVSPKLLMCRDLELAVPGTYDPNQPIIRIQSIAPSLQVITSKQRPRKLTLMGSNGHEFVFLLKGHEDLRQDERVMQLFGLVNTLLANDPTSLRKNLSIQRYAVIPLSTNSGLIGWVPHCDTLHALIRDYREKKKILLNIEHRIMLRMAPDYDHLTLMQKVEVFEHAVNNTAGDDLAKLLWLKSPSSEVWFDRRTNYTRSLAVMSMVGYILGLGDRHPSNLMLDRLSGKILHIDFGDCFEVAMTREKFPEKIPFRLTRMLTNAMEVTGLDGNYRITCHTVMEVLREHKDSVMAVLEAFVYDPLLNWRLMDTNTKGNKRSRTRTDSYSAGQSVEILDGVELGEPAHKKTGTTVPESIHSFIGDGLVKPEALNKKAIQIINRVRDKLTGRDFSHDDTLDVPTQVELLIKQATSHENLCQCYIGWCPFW
Chain of human FGFR-3 (P22607 397-806): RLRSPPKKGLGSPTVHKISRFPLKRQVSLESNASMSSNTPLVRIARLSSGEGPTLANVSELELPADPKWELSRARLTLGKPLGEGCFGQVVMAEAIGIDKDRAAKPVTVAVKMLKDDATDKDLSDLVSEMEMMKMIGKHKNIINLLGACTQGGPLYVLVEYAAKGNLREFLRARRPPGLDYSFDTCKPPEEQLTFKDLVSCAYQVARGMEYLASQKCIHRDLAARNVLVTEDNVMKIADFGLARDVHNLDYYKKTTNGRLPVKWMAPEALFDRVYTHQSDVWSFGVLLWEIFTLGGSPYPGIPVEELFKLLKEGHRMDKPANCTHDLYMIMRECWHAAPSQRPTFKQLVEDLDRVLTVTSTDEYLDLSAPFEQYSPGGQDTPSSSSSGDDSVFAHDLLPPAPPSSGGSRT
Chain of human FGFR-1 (P11362 22-822 limits assumed): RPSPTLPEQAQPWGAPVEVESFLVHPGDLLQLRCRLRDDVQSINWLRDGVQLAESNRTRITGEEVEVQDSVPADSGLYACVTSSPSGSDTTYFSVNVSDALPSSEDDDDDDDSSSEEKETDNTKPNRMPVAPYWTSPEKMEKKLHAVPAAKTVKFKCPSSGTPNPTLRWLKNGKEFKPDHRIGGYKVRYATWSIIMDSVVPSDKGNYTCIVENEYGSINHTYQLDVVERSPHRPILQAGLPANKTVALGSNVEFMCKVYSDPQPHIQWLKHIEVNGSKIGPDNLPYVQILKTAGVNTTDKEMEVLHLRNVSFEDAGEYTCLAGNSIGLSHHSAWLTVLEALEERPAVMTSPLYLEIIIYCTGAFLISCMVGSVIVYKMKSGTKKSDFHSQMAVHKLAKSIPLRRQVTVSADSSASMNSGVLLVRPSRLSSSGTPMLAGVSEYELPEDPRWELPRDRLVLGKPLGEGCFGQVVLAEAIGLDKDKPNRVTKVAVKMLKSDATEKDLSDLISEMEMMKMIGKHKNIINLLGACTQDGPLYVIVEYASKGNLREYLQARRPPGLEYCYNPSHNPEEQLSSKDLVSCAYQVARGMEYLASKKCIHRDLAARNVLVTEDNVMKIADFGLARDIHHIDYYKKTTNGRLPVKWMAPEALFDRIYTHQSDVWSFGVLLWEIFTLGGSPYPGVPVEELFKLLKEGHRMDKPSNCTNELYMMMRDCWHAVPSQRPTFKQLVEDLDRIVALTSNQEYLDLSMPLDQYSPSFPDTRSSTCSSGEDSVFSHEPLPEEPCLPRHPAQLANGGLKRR

Row | SMILES | pIC50 (human FGFR-1) | pIC50 (human FGFR-3) | inhibition at 1 µM (human mTOR) [%]
1 | COc1cc(C)cc2cc(-c3cc(COCCN)n4ncnc(N)c34)sc12 [Example 120] | 7.29 | 7.27 | 14.8
2 | COc1cc(C)cc2cc(-c3cc(COC4CCOC4)n4ncnc(N)c34)sc12 (stereo not shown) [Example 113] | 7.08 | 7.19 | 29.7
3 | COc1cc(C)cc2cc(-c3cc(CN4CC(O)C4)n4ncnc(N)c34)sc12 [Example 91] | 7.43 | 7.62 | 17.7
4 | COc1cc(C)cc2cc(-c3cc(CN4CCCC4c4ccc(C)cc4)n4ncnc(N)c34)sc12 (stereo not shown) [Example 79] | 7.03 | 7.31 | 16.7
5 | COc1cc(C)cc2cc(-c3cc(CNCCNC(C)(C)C)n4ncnc(N)c34)sc12 [Example 34] | 7.00 | – | 4.9
6 | COc1cc(C)cc2cc(-c3cc(CN4CC(N(C)C)C4)n4ncnc(N)c34)sc12 [Example 66] | 7.30 | 7.17 | 5.9
7 | COc1cc(C)cc2cc(-c3cc(CN4CCN(C)CC4)n4ncnc(N)c34)sc12 [Example 12, 5-(7-Methoxy-5-methyl-1-benzothiophen-2-yl)-7-[(4-methylpiperazin-1-yl)methyl]pyrrole[2,1-f]-[1,2,4]triazin-4-amine bis(formiate)] | 7.41 | – | 11.4
8 | COc1cc(C)cc2cc(-c3cc(COC[C@H](C)N)n4ncnc(N)c34)sc12 [Example 111] | 7.09 | 7.07 | 1.1
9 | COc1cc(C)cc2cc(-c3cc(COCC(C)N)n4ncnc(N)c34)sc12 (stereo not shown) [Example 119] | 7.57 | 7.53 | 25.1
10 | COc1cc(C)cc2cc(-c3cc(CN4CC[C@@H](N(C)C)C4)n4ncnc(N)c34)sc12 [Example 90] | 7.59 | 7.52 | 22.7
11 | COc1cc(C)cc2cc(-c3cc(C(=O)N4CCNC(C(N)=O)C4)n4ncnc(N)c34)sc12 (stereo not shown) [Example 102] | 7.31 | 7.05 | 12.8
12 | COc1cc(C)cc2cc(-c3cc(CNC(C)(C)CN4CCCC4)n4ncnc(N)c34)sc12 [Example 57] | 7.49 | 7.27 | 16.2
13 | COc1cc(C)cc2cc(-c3cc(CNC4CCN(C)CC4)n4ncnc(N)c34)sc12 [Example 69] | 7.23 | 7.22 | 4.6
14 | COc1cc(C)cc2cc(-c3cc(Cn4cc(C)nc4C)n4ncnc(N)c34)sc12 [Example 123] | 7.55 | 7.24 | 47.8
15 | COc1cc(C)cc2cc(-c3cc(CN4CCC[C@@H](N)C4)n4ncnc(N)c34)sc12 [Example 55] | 7.79 | 7.73 | 24.6
16 | COc1cc(C)cc2cc(-c3cc(CN4CCCC(O)C4)n4ncnc(N)c34)sc12 (stereo not shown) [Example 70] | 7.21 | 7.24 | 27.9
17 | COc1cc(C)cc2cc(-c3cc(CNC4CCC(N)C4)n4ncnc(N)c34)sc12 (stereo not shown) [Example 40] | 7.20 | – | 15
18 | COc1cc(C)cc2cc(-c3cc(CN4CCC(OC)CC4)n4ncnc(N)c34)sc12 [Example 82] | 7.01 | 7.14 | 18.7
19 | COc1cc(C)cc2cc(-c3cc(CN4CCC(O)CC4)n4ncnc(N)c34)sc12 [Example 88] | 7.80 | 7.67 | 29.5
20 | COc1cccc2cc(-c3cc(CN4CCNCC4)n4ncnc(N)c34)sc12 [Example 3, 5-(7-Methoxy-1-benzothiophen-2-yl)-7-(piperazin-1-ylmethyl)pyrrolo[2,1-f][1,2,4]triazin-4-amine] | 7.03 | – | 12.2
21 | COc1cc(C)cc2cc(-c3cc(CN4CNC(=O)C4)n4ncnc(N)c34)sc12 [Example 63] | – | 7.46 | 26
22 | COc1cc(C)cc2cc(-c3cc(COCCN(C)C)n4ncnc(N)c34)sc12 [Example 108, 7-{[2-(Dimethylamino)ethoxy]methyl}-5-(7-methoxy-5-methyl-1-benzothiophen-2-yl)pyrrolo-[2,1-f][1,2,4]triazin-4-amine dihydrochloride] | 7.01 | – | 7.1
23 | COc1cc(C)cc2cc(-c3cc(CN4CCNC(c5cccs5)C4)n4ncnc(N)c34)sc12 (stereo not shown) [Example 35] | 7.79 | – | 34
24 | COc1cc(C)cc2cc(-c3cc(CN4CCN(C(=O)C5CCC5)CC4)n4ncnc(N)c34)sc12 [Example 94, (4-{[4-Amino-5-(7-methoxy-5-methyl-1-benzothiophen-2-yl)pyrrolo[2,1-f][1,2,4]triazin-7-yl]-methyl}piperazin-1-yl)(cyclobutyl)methanone] | 7.17 | – | 44.7
25 | COc1cc(C)cc2cc(-c3cc(CN4CCN(CCO)CC4)n4ncnc(N)c34)sc12 [Example 25] | 7.13 | – | 10.2

Row | SMILES | pIC50 (human FGFR-1) | pIC50 (human FGFR-3) | inhibition at 1 µM (human mTOR) [%]
26 | COc1cc(C)cc2cc(-c3cc(CNC4CCCN(C)C4)n4ncnc(N)c34)sc12 (stereo not shown) [Example 43] | 7.30 | – | 13.8
27 | COc1cc(C)cc2cc(-c3cc(CNCCNC(N)=O)n4ncnc(N)c34)sc12 [Example 30] | 7.27 | – | 16.2
28 | CNCCNCc1cc(-c2cc3cc(C)cc(OC)c3s2)c2c(N)ncnn12 [Example 29] | 7.30 | – | 2.4
29 | COc1cc(C)cc2cc(-c3cc(CNCCN)n4ncnc(N)c34)sc12 [Example 32] | 7.63 | – | 41.3
30 | COc1cc(C)cc2cc(-c3cc(CN(C)C4CCN(C)C4)n4ncnc(N)c34)sc12 (stereo not shown) [Example 46] | 7.68 | – | 26.3
31 | COc1cc(C)cc2cc(-c3cc(CN4CC(C)NCC4C)n4ncnc(N)c34)sc12 (stereo not shown) [Example 44] | 7.41 | – | 10.8
32 | CCN1CCN(Cc2cc(-c3cc4cc(C)cc(OC)c4s3)c3c(N)ncnn23)CC1 [Example 13, 7-[(4-Ethylpiperazin-1-yl)methyl]-5-(7-methoxy-5-methyl-1-benzothiophen-2-yl)pyrrole[2,1-f]-[1,2,4]triazin-4-amine formiate] | 7.03 | – | 25.2
33 | COc1cc(C)cc2cc(-c3cc(CN4CCCNCC4)n4ncnc(N)c34)sc12 [Example 48] | 7.54 | – | 16.9
34 | COc1cc(C)cc2cc(-c3cc(CN4CCN(C(=O)CCC(N)=O)CC4)n4ncnc(N)c34)sc12 [Example 95, 4-(4-{[4-Amino-5-(7-methoxy-5-methyl-1-benzothiophen-2-yl)pyrrolo[2,1-f][1,2,4]triazin-7-yl]-methyl}piperazin-1-yl)-4-oxobutanamide dihydrochloride] | 7.02 | – | 40.3
35 | COc1cc(C)cc2cc(-c3cc(CN4CCN5CCCC5C4)n4ncnc(N)c34)sc12 (stereo not shown) [Example 50] | 7.23 | – | 3.4
36 | Nc1nccn2c(C3CCC3)nc(-c3cc4ccccc4s3)c12 [WO 2007/061737 Example 120, reference compound] | – | 6.30 | –
37 | COc1cc(C)cc2cc(-c3cc(CN4CCNC(C(=O)O)C4)n4ncnc(N)c34)sc12 (stereo not shown) [Example 38] | 7.34 | – | 11.2
38 | COc1cc(C)cc2cc(-c3cc(CN4CCNC(C)C4)n4ncnc(N)c34)sc12 (stereo not shown) [Example 51] | 7.38 | – | 0.9
39 | CCC1CN(Cc2cc(-c3cc4cc(C)cc(OC)c4s3)c3c(N)ncnn23)CCN1 (stereo not shown) [Example 36] | 7.77 | – | 18.3
40 | COc1cc(C)cc2cc(-c3cc(CNC4CCCNC4=O)n4ncnc(N)c34)sc12 (stereo not shown) [Example 37] | 7.35 | – | 13.4
41 | COc1cc(C)cc2cc(-c3cc(CN4CCNC(C(C)(C)C)C4)n4ncnc(N)c34)sc12 (stereo not shown) [Example 49] | 7.23 | – | 1.3
42 | COc1cc(C)cc2cc(-c3cc(CN4C[C@@H]5CCCN[C@@H]5C4)n4ncnc(N)c34)sc12 [Example 47] | 7.60 | – | 29
43 | Nc1nccn2c(C3CCC3)nc(-c3ccc4sccc4c3)c12 [WO 2007/061737 Example 4, reference compound] | – | 5.62 | –
44 | Nc1nccn2c(C3CCNCC3)nc(-c3cc4ccccc4[nH]3)c12 [WO 2007/061737 Example 25, reference compound] | 6.06 | 5.92 | –
45 | Cc1c(-c2nc(C3CCN(C(=O)c4ccsc4)CC3)n3ccnc(N)c23)sc2ccccc12 [WO 2007/061737 Example 209, reference compound] | 5.55 | 6.10 | –
46 | COc1cc(C)cc2cc(-c3cc(CN4CCNC(=O)C4C)n4ncnc(N)c34)sc12 (stereo not shown) [Example 39] | 7.24 | – | 21.4
47 | COc1cc(C)cc2cc(-c3cc(CN(C)CCCN(C)C)n4ncnc(N)c34)sc12 [Example 52] | 7.06 | – | 7.3
48 | Nc1nccn2c(C3CCN(C(=O)c4ccsc4)CC3)nc(-c3cc4ccccc4s3)c12 [WO 2007/061737 Example 157, reference compound] | 5.52 | 5.64 | –
49 | COc1cc(C)cc2cc(-c3cc(CN4CCN(C(=O)C5CC5)CC4)n4ncnc(N)c34)sc12 [Example 93, (4-{[4-Amino-5-(7-methoxy-5-methyl-1-benzothiophen-2-yl)pyrrolo[2,1-f][1,2,4]triazin-7-yl]-methyl}piperazin-1-yl)(cyclopropyl)methanone] | 7.17 | – | 47.2
